The values that follow come from patent US11945813B2, “5-substituted 4-amino-1H-benzo[c][1,2,6]thiadiazine 2,2-dioxides and formulations and uses thereof” (Firmenich Incorporated, priority 2018, dated 2024).

This assay concerns the target T1, T1R2/T1R3 taste receptor (Homo sapiens, UniProt Q8TE23).
T1 sequence (Q8TE23 20-839): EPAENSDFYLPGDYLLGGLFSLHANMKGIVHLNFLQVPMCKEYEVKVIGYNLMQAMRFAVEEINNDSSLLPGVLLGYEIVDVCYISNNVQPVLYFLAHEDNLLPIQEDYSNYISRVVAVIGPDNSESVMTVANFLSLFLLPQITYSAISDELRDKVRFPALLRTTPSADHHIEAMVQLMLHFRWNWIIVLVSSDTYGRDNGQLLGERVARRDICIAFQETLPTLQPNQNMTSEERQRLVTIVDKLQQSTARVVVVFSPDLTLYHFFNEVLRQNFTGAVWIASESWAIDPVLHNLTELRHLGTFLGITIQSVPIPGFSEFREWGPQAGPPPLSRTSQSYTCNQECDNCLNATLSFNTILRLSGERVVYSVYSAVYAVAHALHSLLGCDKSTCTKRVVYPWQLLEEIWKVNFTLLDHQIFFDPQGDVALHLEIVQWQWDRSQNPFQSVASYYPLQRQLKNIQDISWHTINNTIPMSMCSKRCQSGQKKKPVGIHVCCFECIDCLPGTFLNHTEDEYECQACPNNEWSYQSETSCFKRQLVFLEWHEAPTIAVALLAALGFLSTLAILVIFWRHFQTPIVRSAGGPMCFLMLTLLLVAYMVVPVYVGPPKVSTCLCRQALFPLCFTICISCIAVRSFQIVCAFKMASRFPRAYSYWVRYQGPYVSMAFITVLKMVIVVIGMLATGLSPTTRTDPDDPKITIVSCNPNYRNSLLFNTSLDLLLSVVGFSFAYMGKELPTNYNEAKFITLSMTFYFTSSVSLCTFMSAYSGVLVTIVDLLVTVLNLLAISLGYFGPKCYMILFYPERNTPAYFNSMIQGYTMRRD
T1 sequence (Q7RTX0 21-852 partner): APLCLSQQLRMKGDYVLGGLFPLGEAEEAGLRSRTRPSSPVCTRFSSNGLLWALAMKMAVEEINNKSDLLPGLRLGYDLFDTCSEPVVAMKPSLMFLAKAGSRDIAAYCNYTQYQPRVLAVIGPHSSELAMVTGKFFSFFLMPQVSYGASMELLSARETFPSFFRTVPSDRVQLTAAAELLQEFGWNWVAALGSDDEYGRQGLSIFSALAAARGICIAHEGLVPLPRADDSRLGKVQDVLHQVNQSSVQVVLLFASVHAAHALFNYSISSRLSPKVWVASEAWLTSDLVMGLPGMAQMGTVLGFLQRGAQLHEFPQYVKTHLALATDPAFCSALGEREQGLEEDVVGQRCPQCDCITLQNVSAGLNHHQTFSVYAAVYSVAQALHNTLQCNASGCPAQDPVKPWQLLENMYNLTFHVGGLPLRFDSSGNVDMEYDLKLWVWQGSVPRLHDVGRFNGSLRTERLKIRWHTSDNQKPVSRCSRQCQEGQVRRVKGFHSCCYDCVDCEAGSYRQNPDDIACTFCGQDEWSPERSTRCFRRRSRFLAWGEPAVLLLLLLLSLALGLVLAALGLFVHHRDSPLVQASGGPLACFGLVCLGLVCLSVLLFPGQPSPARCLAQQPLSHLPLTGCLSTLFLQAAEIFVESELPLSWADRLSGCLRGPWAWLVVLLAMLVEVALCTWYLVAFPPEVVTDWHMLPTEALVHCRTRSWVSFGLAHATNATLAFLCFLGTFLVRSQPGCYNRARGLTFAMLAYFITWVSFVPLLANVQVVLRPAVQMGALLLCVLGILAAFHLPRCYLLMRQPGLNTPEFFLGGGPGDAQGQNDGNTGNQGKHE
As to the kind of experiment: Receptor-based assay: sweetener EC50 alone and with test compound (enhancement ratio). The assay is classed as cell-based. The following applies: for Fructose Enhancement EC50 Ratio: sweetener fructose; for Sucralose Enhancement EC50 Ratio: sweetener sucralose; for Sucrose Enhancement EC50 Ratio: sweetener sucrose. The procedure, abridged:
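Sucrose, sucralose or fructose EC50 measured on human T1R2/T1R3, alone and with 3, 10 or 50 μM test compound. Enhancement is the EC50 ratio without/with compound, binned A >20, B 10-20, C >1 to <10.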

For `NC1=NS(=O)(=O)Nc2cccc(OC[C@H]3CCCN(c4ccc(C(=O)NC5CCCCC5)cn4)C3)c21` [Compound 509], under “50 μM test compound”, the “Fructose Enhancement EC50 Ratio” value is “C (A “C” value indicates an enhancement ratio greater than 1 and less than 10)”; the “Sucralose Enhancement EC50 Ratio” value is on record as “A (An “A” value indicates an enhancement ratio of greater than 20)”; the “Sucrose Enhancement EC50 Ratio” value was “C (A “C” value indicates an enhancement ratio greater than 1 and less than 10)”. Besides, where the note is “10 μM test compound”, the “Sucralose Enhancement EC50 Ratio” value is “B (A “B” value indicates an enhancement ratio from 10 to 20)”; the “Sucrose Enhancement EC50 Ratio” value is “C (A “C” value indicates an enhancement ratio greater than 1 and less than 10)”. Besides, the “Sucrose Enhancement EC50 Ratio” value (3 μM test compound) is “C (A “C” value indicates an enhancement ratio greater than 1 and less than 10)”.

Consider `CN(C)C(=O)c1ccc(N2CCC[C@H](COc3cccc4c3C(N)=NS(=O)(=O)N4)C2)nc1` [Compound 510], for which, where the note is “50 μM test compound”, the “Fructose Enhancement EC50 Ratio” value was “C (A “C” value indicates an enhancement ratio greater than 1 and less than 10)”; the “Sucralose Enhancement EC50 Ratio” value is given as “A (An “A” value indicates an enhancement ratio of greater than 20)”; the “Sucrose Enhancement EC50 Ratio” value was “A (An “A” value indicates an enhancement ratio of greater than 20)”. Also, where the note is “10 μM test compound”, the “Sucralose Enhancement EC50 Ratio” value is reported as “B (A “B” value indicates an enhancement ratio from 10 to 20)”; the “Sucrose Enhancement EC50 Ratio” value is “C (A “C” value indicates an enhancement ratio greater than 1 and less than 10)”. Besides, the “Sucrose Enhancement EC50 Ratio” value (3 μM test compound) is “C (A “C” value indicates an enhancement ratio greater than 1 and less than 10)”.

As for `CCN(CC)C(=O)c1ccc(N2CCC[C@H](COc3cccc4c3C(N)=NS(=O)(=O)N4)C2)nc1` [Compound 511], under “50 μM test compound”, the “Fructose Enhancement EC50 Ratio” value was “C (A “C” value indicates an enhancement ratio greater than 1 and less than 10)”; the “Sucralose Enhancement EC50 Ratio” value was “A (An “A” value indicates an enhancement ratio of greater than 20)”; the “Sucrose Enhancement EC50 Ratio” value is “B (A “B” value indicates an enhancement ratio from 10 to 20)”. Besides, where the note is “10 μM test compound”, the “Sucralose Enhancement EC50 Ratio” value is reported as “A (An “A” value indicates an enhancement ratio of greater than 20)”; the “Sucrose Enhancement EC50 Ratio” value is “C (A “C” value indicates an enhancement ratio greater than 1 and less than 10)”. For the same compound, for the setting “3 μM test compound”, the “Sucrose Enhancement EC50 Ratio” value is “C (A “C” value indicates an enhancement ratio greater than 1 and less than 10)”.

As to `NC1=NS(=O)(=O)Nc2cccc(OC[C@H]3CCCN(c4ccc(C(=O)N5CCCC5)cn4)C3)c21` [Compound 512], under “50 μM test compound”, the “Fructose Enhancement EC50 Ratio” value was “C (A “C” value indicates an enhancement ratio greater than 1 and less than 10)”; the “Sucralose Enhancement EC50 Ratio” value was “A (An “A” value indicates an enhancement ratio of greater than 20)”; the “Sucrose Enhancement EC50 Ratio” value was “C (A “C” value indicates an enhancement ratio greater than 1 and less than 10)”. For the same compound, where the note is “10 μM test compound”, the “Sucralose Enhancement EC50 Ratio” value is given as “A (An “A” value indicates an enhancement ratio of greater than 20)”; the “Sucrose Enhancement EC50 Ratio” value is “C (A “C” value indicates an enhancement ratio greater than 1 and less than 10)”. In addition, the “Sucrose Enhancement EC50 Ratio” value (3 μM test compound) is “C (A “C” value indicates an enhancement ratio greater than 1 and less than 10)”.

Consider `NC1=NS(=O)(=O)Nc2cccc(OC[C@H]3CCCN(c4ccc(C(=O)N5CCCCC5)cn4)C3)c21` [Compound 513], for which, under “10 μM test compound”, the “Fructose Enhancement EC50 Ratio” value is “C (A “C” value indicates an enhancement ratio greater than 1 and less than 10)”; the “Sucralose Enhancement EC50 Ratio” value was “A (An “A” value indicates an enhancement ratio of greater than 20)”; the “Sucrose Enhancement EC50 Ratio” value is “C (A “C” value indicates an enhancement ratio greater than 1 and less than 10)”. Besides, for the setting “50 μM test compound”, the “Fructose Enhancement EC50 Ratio” value was “C (A “C” value indicates an enhancement ratio greater than 1 and less than 10)”; the “Sucralose Enhancement EC50 Ratio” value is “A (An “A” value indicates an enhancement ratio of greater than 20)”; the “Sucrose Enhancement EC50 Ratio” value is “C (A “C” value indicates an enhancement ratio greater than 1 and less than 10)”. The “Sucrose Enhancement EC50 Ratio” value (3 μM test compound) was “C (A “C” value indicates an enhancement ratio greater than 1 and less than 10)”.

As for `NC1=NS(=O)(=O)Nc2cccc(OC[C@H]3CCCN(c4ccc(C(=O)N5CCOCC5)cn4)C3)c21` [Compound 514], for the setting “10 μM test compound”, the “Fructose Enhancement EC50 Ratio” value was “C (A “C” value indicates an enhancement ratio greater than 1 and less than 10)”; the “Sucralose Enhancement EC50 Ratio” value was “A (An “A” value indicates an enhancement ratio of greater than 20)”; the “Sucrose Enhancement EC50 Ratio” value is “C (A “C” value indicates an enhancement ratio greater than 1 and less than 10)”. Under “50 μM test compound”, the “Fructose Enhancement EC50 Ratio” value is “C (A “C” value indicates an enhancement ratio greater than 1 and less than 10)”; the “Sucralose Enhancement EC50 Ratio” value is “B (A “B” value indicates an enhancement ratio from 10 to 20)”; the “Sucrose Enhancement EC50 Ratio” value is “C (A “C” value indicates an enhancement ratio greater than 1 and less than 10)”. For the same compound, the “Sucrose Enhancement EC50 Ratio” value (3 μM test compound) was “C (A “C” value indicates an enhancement ratio greater than 1 and less than 10)”.

For `CC(C)CNC(=O)c1ccc(N2CCC[C@H](COc3cccc4c3C(N)=NS(=O)(=O)N4)C2)nc1` [Compound 515], the “Fructose Enhancement EC50 Ratio” value reads like this: (10 μM test compound) “C (A “C” value indicates an enhancement ratio greater than 1 and less than 10)”; (50 μM test compound) “C (A “C” value indicates an enhancement ratio greater than 1 and less than 10)”. The “Sucralose Enhancement EC50 Ratio” value was “A (An “A” value indicates an enhancement ratio of greater than 20)” (10 μM test compound) and “A (An “A” value indicates an enhancement ratio of greater than 20)” (50 μM test compound). Also, the “Sucrose Enhancement EC50 Ratio” value is “C (A “C” value indicates an enhancement ratio greater than 1 and less than 10)” (3 μM test compound); “C (A “C” value indicates an enhancement ratio greater than 1 and less than 10)” (10 μM test compound); “C (A “C” value indicates an enhancement ratio greater than 1 and less than 10)” (50 μM test compound).

As for `NC1=NS(=O)(=O)Nc2cccc(OC[C@H]3CCCN(c4ccc(C(=O)NCC5CC5)cn4)C3)c21` [Compound 516], where the note is “50 μM test compound”, the “Fructose Enhancement EC50 Ratio” value was “C (A “C” value indicates an enhancement ratio greater than 1 and less than 10)”; the “Sucralose Enhancement EC50 Ratio” value is recorded as “A (An “A” value indicates an enhancement ratio of greater than 20)”; the “Sucrose Enhancement EC50 Ratio” value is “C (A “C” value indicates an enhancement ratio greater than 1 and less than 10)”. Besides, where the note is “10 μM test compound”, the “Sucralose Enhancement EC50 Ratio” value is on record as “A (An “A” value indicates an enhancement ratio of greater than 20)”; the “Sucrose Enhancement EC50 Ratio” value was “C (A “C” value indicates an enhancement ratio greater than 1 and less than 10)”. Also, where the note is “3 μM test compound”, the “Sucrose Enhancement EC50 Ratio” value is “C (A “C” value indicates an enhancement ratio greater than 1 and less than 10)”.

As for `NC1=NS(=O)(=O)Nc2cccc(OC[C@H]3CCCN(c4ccc(C(=O)NCC5CCCCC5)cn4)C3)c21` [Compound 517], the “Sucralose Enhancement EC50 Ratio” value by setting is: (10 μM test compound) “C (A “C” value indicates an enhancement ratio greater than 1 and less than 10)”; (50 μM test compound) “B (A “B” value indicates an enhancement ratio from 10 to 20)”. In addition, the “Sucrose Enhancement EC50 Ratio” value (3 μM test compound) was “C (A “C” value indicates an enhancement ratio greater than 1 and less than 10)”; the “Sucrose Enhancement EC50 Ratio” value (10 μM test compound) is “C (A “C” value indicates an enhancement ratio greater than 1 and less than 10)”; the “Sucrose Enhancement EC50 Ratio” value (50 μM test compound) was “C (A “C” value indicates an enhancement ratio greater than 1 and less than 10)”.
